One may read the inhibition as the share of the control response that was lost under treatment.

In patent US11236105B2, “Bicyclic compounds and methods of use” (BioTheryX, Inc., priority 2017, dated 2022) one finds inhibition data, which are given here for ten molecules.

The subject of this test is TNF-α. Briefly: Cell-Based TNFα Inhibition Assay (PBMCs induced with LPS, Meso Scale). To be noted: PBMC, PBMCs pretreated 1 hr, induced with LPS 100 ng/mL 18-24 hrs, supernatant TNF-α; for inhibition at 0.1 µM: 0.1 μM compound; for inhibition at 1 µM: 1 μM compound. How it is done: Cell-Based TNFα Inhibition Assay
PBMCs induced with LPS (lipopolysaccharide): Frozen […] blood mononuclear cells (PBMCs) are purchased from AllCells. Cells are quick thawed, washed once with Roswell Park Memorial Institute medium (RPMI)-1640/10% FBS/1% Penicillin/1% Streptomycin and plated in 96 well plates at 200,000 cells per well. Cells are pretreated with DMSO only or the indicated compounds for 1 hr and then induced with […] for 18-24 hrs. The supernatant is analyzed for TNF-α using Meso Scale assay according to manufacturer's protocol. The negative control wells are treated with DMSO. Compound activity is measured as a percentage of the DMSO control.

Consider `CCOc1cc([C@@H](CS(C)(=O)=O)N2C(=O)c3csc(NC(=O)COC)c3C2=O)ccc1OC` [Compound 3, (S)—N-(5-(1-(3-ethoxy-4-methoxyphenyl)-2-(methylsulfonyl)ethyl)-4,6-dioxo-5,6-dihydro-4H-thieno[3,4-c]pyrrol-1-yl)-2-methoxyacetamide], for which the inhibition at 0.1 µM was 40 to 60% and the inhibition at 1 µM was greater than 60%.

As for `CC(=O)Nc1scc2c1C(=O)N([C@H](CS(=O)(=O)N(C)C)c1ccc3c(c1)OCO3)C2=O` [Compound 27, N-(5-(1-(benzo[d][1,3]dioxol-5-yl)-2-(N,N-dimethylsulfamoyl)ethyl)-4,6-dioxo-5,6-dihydro-4H-thieno[3,4-c]pyrrol-1-yl)acetamide], the inhibition at 0.1 µM was less than 20% and the inhibition at 1 µM was less than 20%.

As for `CCOc1cc([C@@H](CS(C)(=O)=O)N2C(=O)c3scc(NC(=O)COC)c3C2=O)ccc1OC` [Compound 10, (S)—N-(5-(1-(3-ethoxy-4-methoxyphenyl)-2-(methylsulfonyl)ethyl)-4,6-dioxo-5,6-dihydro-4H-thieno[2,3-c]pyrrol-3-yl)-2-methoxyacetamide], the inhibition at 0.1 µM is less than 20% and the inhibition at 1 µM lay in the range of 40 to 60%.

`CC(=O)Nc1scc2c1C(=O)N([C@H](CS(C)(=O)=O)c1ccc3c(c1)OCO3)C2=O` [Compound 12, N-(5-(1-(benzo[d][1,3]dioxol-5-yl)-2-(methylsulfonyl)ethyl)-4,6-dioxo-5,6-dihydro-4H-thieno[3,4-c]pyrrol-1-yl)acetamide]: the inhibition at 0.1 µM is less than 20% and the inhibition at 1 µM was less than 20%.

`CCOc1cc([C@H](CS(=O)(=O)N(C)C)N2C(=O)c3csc(NC(C)=O)c3C2=O)ccc1OC` [Compound 29, (R)—N-(5-(2-(N,N-dimethylsulfamoyl)-1-(3-ethoxy-4-methoxyphenyl)ethyl)-4,6-dioxo-5,6-dihydro-4H-thieno[3,4-c]pyrrol-1-yl)acetamide]: the inhibition at 0.1 µM was less than 20% and the inhibition at 1 µM is less than 20%.

For `CCOc1cc([C@@H](CS(C)(=O)=O)N2Cc3c(NC(=O)COC)csc3C2=O)ccc1OC` [Compound 31, (S)—N-(5-(1-(3-ethoxy-4-methoxyphenyl)-2-(methylsulfonyl)ethyl)-6-oxo-5,6-dihydro-4H-thieno[2,3-c]pyrrol-3-yl)-2-methoxyacetamide], the inhibition at 0.1 µM is less than 20% and the inhibition at 1 µM was less than 20%.

For the molecule `CS(=O)(=O)C[C@H](c1ccc2c(c1)OCO2)N1C(=O)c2csc(NC(=O)C(F)(F)F)c2C1=O` [Compound 16, N-(5-(1-(benzo[d][1,3]dioxol-5-yl)-2-(methylsulfonyl)ethyl)-4,6-dioxo-5,6-dihydro-4H-thieno[3,4-c]pyrrol-1-yl)-2,2,2-trifluoro Acetamide], the inhibition at 0.1 µM is less than 20% and the inhibition at 1 µM is less than 20%.

Consider `COCC(=O)Nc1csc2c1C(=O)N([C@@H](CS(C)(=O)=O)c1ccc3c(c1)OCO3)C2=O` [Compound 26, N-(5-(1-(benzo[d][1,3]dioxol-5-yl)-2-(methylsulfonyl)ethyl)-4,6-dioxo-5,6-dihydro-4H-thieno[2,3-c]pyrrol-3-yl)-2-methoxy acetamide], for which the inhibition at 0.1 µM was less than 20% and the inhibition at 1 µM was less than 20%.

Take `CS(=O)(=O)C[C@@H](c1ccc2c(c1)OCO2)N1C(=O)c2csc(NC(=O)C(F)(F)F)c2C1=O` [Compound 17, N-(5-(1-(benzo[d][1,3]dioxol-5-yl)-2-(methylsulfonyl)ethyl)-4,6-dioxo-5,6-dihydro-4H-thieno[3,4-c]pyrrol-1-yl)-2,2,2-trifluoro Acetamide]: the inhibition at 0.1 µM is less than 20% and the inhibition at 1 µM is less than 20%.

Consider `CS(=O)(=O)C[C@H](c1ccc2c(c1)OCO2)N1C(=O)c2csc(NC(=O)C3CC3)c2C1=O` [Compound 13, N-(5-(1-(benzo[d][1,3]dioxol-5-yl)-2-(methylsulfonyl)ethyl)-4,6-dioxo-5,6-dihydro-4H-thieno[3,4-c]pyrrol-1-yl)cyclopropane Carboxamide], for which the inhibition at 0.1 µM is less than 20% and the inhibition at 1 µM was less than 20%.
